Measurements published in US9476099B2 (TRUSTEES OF DARTMOUTH COLLEGE, priority 2012, dated 2016).

Test system: gene promoters in NT2/D1-R1 control and DNMT3B knockdown cells
Assay: Genome-wide promoter methylation analysis, HumanMethylation27 BeadChip (Table 15)
Assay type: cell-based, human
Conditions: sh-3b + 5aza
Procedure: DNA methylation analysis was performed in samples in triplicate using the […] […] assay with the HumanMethylation27 BeadChip ([…]) and the BeadChip was scanned on the BeadArray Reader ([…]), according to the manufacturer's instructions. Raw data was normalized and analyzed with Genome Studio software ([…]). The HumanMethylation27 BeadChip assays 27,578 CpGs covering more than 14,000 genes, mostly from promoter regions. […] Hierarchical clustering was performed as stated above. HumanMethylation27 BeadChip data and gene expression microarray data were submitted to NCBI GEO.

Nc1ncn([C@H]2C[C@H](O)[C@@H](CO)O2)c(=O)n1 [5aza]
SERPING1 cg12783776 promoter methylation Mean: 0.350 | SFRS16 cg19317638 promoter methylation Mean: 0.369 | SFXN3 cg04880063 promoter methylation Mean: 0.188 | SH3BGRL2 cg03080985 promoter methylation Mean: 0.260 | SHH cg25167838 promoter methylation Mean: 0.127 | SKIP cg04072323 promoter methylation Mean: 0.310 | SLC30A2 cg05674944 promoter methylation Mean: 0.337 | SMCP cg09542291 promoter methylation Mean: 0.504 | SNX9 cg26845300 promoter methylation Mean: 0.722 | SOX17 cg21226224 promoter methylation Mean: 0.495 | SPRR1B cg24884084 promoter methylation Mean: 0.334 | SSH1 cg11747499 promoter methylation Mean: 0.292 | SSTR1 cg27590397 promoter methylation Mean: 0.900 | TAC1 cg07550362 promoter methylation Mean: 0.507 | TADA3L cg09279263 promoter methylation Mean: 0.350 | TERT cg02545192 promoter methylation Mean: 0.311 | TNFSF10 cg16555388 promoter methylation Mean: 0.430 | TNRC4 cg26093148 promoter methylation Mean: 0.661 | TNRC15 cg07230446 promoter methylation Mean: 0.243 | TRAF3 cg24165760 promoter methylation Mean: 0.797 | TRIM2 cg12793610 promoter methylation Mean: 0.506 | TRIM36 cg10693071 promoter methylation Mean: 0.545 | TRPM3 cg20555507 promoter methylation Mean: 0.291 | UNC5D cg00297600 promoter methylation Mean: 0.384 | WDR13 cg25053301 promoter methylation Mean: 0.211 | ZFHX1B cg15377518 promoter methylation Mean: 0.472 | ZNF222 cg09757277 promoter methylation Mean: 0.355 | cg07512517 promoter methylation Mean: 0.473 | Mean promoter methylation, ABCA3 cg02331561 (DNMT3B knockdown cells): 0.145 | Mean promoter methylation, ABLIM3 cg05026186 (DNMT3B knockdown cells): 0.240 | Mean promoter methylation, ACTL6B cg08572611 (DNMT3B knockdown cells): 0.138 | Mean promoter methylation, ANKRD46 cg23737055 (DNMT3B knockdown cells): 0.257 | Mean promoter methylation, ARNT2 cg17788682 (DNMT3B knockdown cells): 0.139 | Mean promoter methylation, B4GALNT3 cg05769161 (DNMT3B knockdown cells): 0.271 | Mean promoter methylation, BTBD1 cg16958189 (DNMT3B knockdown cells): 0.259 | Mean promoter methylation, C1RL cg22593785 (DNMT3B knockdown cells): 0.188 | Mean promoter methylation, C10orf10 cg17186163 (DNMT3B knockdown cells): 0.237 | Mean promoter methylation, C10orf72 cg02569613 (DNMT3B knockdown cells): 0.312 | Mean promoter methylation, C12orf34 cg01335367 (DNMT3B knockdown cells): 0.420 | Mean promoter methylation, C17orf40 cg18042079 (DNMT3B knockdown cells): 0.213 | Mean promoter methylation, C19orf30 cg07456645 (DNMT3B knockdown cells): 0.254 | Mean promoter methylation, C20orf29 cg09158909 (DNMT3B knockdown cells): 0.226 | Mean promoter methylation, C22orf9 cg11221513 (DNMT3B knockdown cells): 0.229 | Mean promoter methylation, CACNA1G cg18454685 (DNMT3B knockdown cells): 0.286 | Mean promoter methylation, CAMKK2 cg01369981 (DNMT3B knockdown cells): 0.191 | Mean promoter methylation, CART cg23300372 (DNMT3B knockdown cells): 0.160 | Mean promoter methylation, CCKBR cg13346411 (DNMT3B knockdown cells): 0.197 | Mean promoter methylation, CDC42EP1 cg13951472 (DNMT3B knockdown cells): 0.217 | Mean promoter methylation, CDKN2A cg10895543 (DNMT3B knockdown cells): 0.168 | Mean promoter methylation, CHST8 cg24739326 (DNMT3B knockdown cells): 0.319 | Mean promoter methylation, CPSF1 cg20326853 (DNMT3B knockdown cells): 0.241 | Mean promoter methylation, CSMD1 cg22619018 (DNMT3B knockdown cells): 0.201 | Mean promoter methylation, DCTN3 cg22579849 (DNMT3B knockdown cells): 0.325 | Mean promoter methylation, DDX42 cg05797656 (DNMT3B knockdown cells): 0.192 | Mean promoter methylation, DGKD cg25506396 (DNMT3B knockdown cells): 0.202 | Mean promoter methylation, DGKI cg06277657 (DNMT3B knockdown cells): 0.190 | Mean promoter methylation, DKK2 cg01404615 (DNMT3B knockdown cells): 0.398 | Mean promoter methylation, DUSP8 cg02271621 (DNMT3B knockdown cells): 0.135 | Mean promoter methylation, EHD2 cg12603043 (DNMT3B knockdown cells): 0.176 | Mean promoter methylation, ELK1 cg21860846 (DNMT3B knockdown cells): 0.181 | Mean promoter methylation, EMP3 cg01795122 (DNMT3B knockdown cells): 0.127 | Mean promoter methylation, EYA4 cg01805282 (DNMT3B knockdown cells): 0.174 | Mean promoter methylation, FAM70B cg15350194 (DNMT3B knockdown cells): 0.222 | Mean promoter methylation, FAM73B cg00729541 (DNMT3B knockdown cells): 0.213 | Mean promoter methylation, FCHSD2 cg17114257 (DNMT3B knockdown cells): 0.179 | Mean promoter methylation, FLJ20273 cg01704534 (DNMT3B knockdown cells): 0.222 | Mean promoter methylation, FLJ20273 cg15967525 (DNMT3B knockdown cells): 0.362 | Mean promoter methylation, FLJ42486 cg03734874 (DNMT3B knockdown cells): 0.287 | Mean promoter methylation, GAB3 cg12938998 (DNMT3B knockdown cells): 0.235 | Mean promoter methylation, GALR1 cg04534765 (DNMT3B knockdown cells): 0.176 | Mean promoter methylation, GCN5L2 cg08434547 (DNMT3B knockdown cells): 0.249 | Mean promoter methylation, GNAS cg00943909 (DNMT3B knockdown cells): 0.097 | Mean promoter methylation, HBQ1 cg07703401 (DNMT3B knockdown cells): 0.220 | Mean promoter methylation, HCN1 cg11285003 (DNMT3B knockdown cells): 0.202 | Mean promoter methylation, HES6 cg24127874 (DNMT3B knockdown cells): 0.377 | Mean promoter methylation, HEYL cg25462291 (DNMT3B knockdown cells): 0.218 | Mean promoter methylation, HRH3 cg08186362 (DNMT3B knockdown cells): 0.297 | Mean promoter methylation, ICAM1 cg22874046 (DNMT3B knockdown cells): 0.144 | Mean promoter methylation, ID2 cg23525180 (DNMT3B knockdown cells): 0.201 | Mean promoter methylation, IGFBP3 cg04796162 (DNMT3B knockdown cells): 0.230 | Mean promoter methylation, KATNB1 cg15153383 (DNMT3B knockdown cells): 0.265 | Mean promoter methylation, KCNAB1 cg23873703 (DNMT3B knockdown cells): 0.334 | Mean promoter methylation, KCNC2 cg18573383 (DNMT3B knockdown cells): 0.159 | Mean promoter methylation, KIAA1822 cg02867079 (DNMT3B knockdown cells): 0.345 | Mean promoter methylation, KIAA1840 cg06121469 (DNMT3B knockdown cells): 0.191 | Mean promoter methylation, KRTCAP2 cg11278262 (DNMT3B knockdown cells): 0.257 | Mean promoter methylation, LGALS1 cg00292662 (DNMT3B knockdown cells): 0.230 | Mean promoter methylation, LGR6 cg23578193 (DNMT3B knockdown cells): 0.187 | Mean promoter methylation, LOX cg06508445 (DNMT3B knockdown cells): 0.101 | Mean promoter methylation, MAP6D1 cg03705396 (DNMT3B knockdown cells): 0.201 | Mean promoter methylation, MGC9850 cg21097640 (DNMT3B knockdown cells): 0.218 | Mean promoter methylation, MRPL38 cg11653266 (DNMT3B knockdown cells): 0.155 | Mean promoter methylation, MT cg14078309 (DNMT3B knockdown cells): 0.154 | Mean promoter methylation, MYOD1 cg18555440 (DNMT3B knockdown cells): 0.321 | Mean promoter methylation, OGG1 cg25415932 (DNMT3B knockdown cells): 0.240 | Mean promoter methylation, OR10J1 cg25076881 (DNMT3B knockdown cells): 0.335 | Mean promoter methylation, OSTbeta cg16029760 (DNMT3B knockdown cells): 0.144 | Mean promoter methylation, PABPC4 cg12585282 (DNMT3B knockdown cells): 0.221 | Mean promoter methylation, PDE8B cg18089852 (DNMT3B knockdown cells): 0.130 | Mean promoter methylation, PHLDA2 cg01263716 (DNMT3B knockdown cells): 0.248 | Mean promoter methylation, PHLDA2 cg04720330 (DNMT3B knockdown cells): 0.195 | Mean promoter methylation, PIB5PA cg18053607 (DNMT3B knockdown cells): 0.247 | Mean promoter methylation, PLOD1 cg23286660 (DNMT3B knockdown cells): 0.235 | Mean promoter methylation, PPCDC cg11632617 (DNMT3B knockdown cells): 0.269 | Mean promoter methylation, PRDM12 cg09191327 (DNMT3B knockdown cells): 0.240 | Mean promoter methylation, PRMT8 cg23739862 (DNMT3B knockdown cells): 0.116 | Mean promoter methylation, PTPRO cg19402885 (DNMT3B knockdown cells): 0.303 | Mean promoter methylation, PTPRO cg27196745 (DNMT3B knockdown cells): 0.267 | Mean promoter methylation, R3HDML cg17692403 (DNMT3B knockdown cells): 0.288 | Mean promoter methylation, RAB37 cg12448933 (DNMT3B knockdown cells): 0.241 | Mean promoter methylation, RASA4 cg05749161 (DNMT3B knockdown cells): 0.102 | Mean promoter methylation, RASL11A cg06611744 (DNMT3B knockdown cells): 0.208 | Mean promoter methylation, SCAMP3 cg01745448 (DNMT3B knockdown cells): 0.209 | Mean promoter methylation, SCARA5 cg10171125 (DNMT3B knockdown cells): 0.239 | Mean promoter methylation, SEC14L2 cg14452140 (DNMT3B knockdown cells): 0.337 | Mean promoter methylation, SH3BGRL3 cg03100146 (DNMT3B knockdown cells): 0.341 | Mean promoter methylation, SHH cg00577464 (DNMT3B knockdown cells): 0.212 | Mean promoter methylation, SLC6A5 cg20632573 (DNMT3B knockdown cells): 0.192 | Mean promoter methylation, SLC25A22 cg02973416 (DNMT3B knockdown cells): 0.318 | Mean promoter methylation, SLC35C2 cg02413850 (DNMT3B knockdown cells): 0.155 | Mean promoter methylation, SLIT1 cg07143898 (DNMT3B knockdown cells): 0.176 | Mean promoter methylation, SORCS3 cg16787600 (DNMT3B knockdown cells): 0.384 | Mean promoter methylation, SOX15 cg01029592 (DNMT3B knockdown cells): 0.171 | Mean promoter methylation, SOX15 cg13098960 (DNMT3B knockdown cells): 0.261 | Mean promoter methylation, SOX17 cg02919422 (DNMT3B knockdown cells): 0.329 | Mean promoter methylation, STXBP3 cg11666924 (DNMT3B knockdown cells): 0.194 | Mean promoter methylation, SUSD2 cg23349242 (DNMT3B knockdown cells): 0.329 | Mean promoter methylation, TBXA2R cg09998229 (DNMT3B knockdown cells): 0.256 | Mean promoter methylation, THAP3 cg11688219 (DNMT3B knockdown cells): 0.344 | Mean promoter methylation, TMEM25 cg20001829 (DNMT3B knockdown cells): 0.238 | Mean promoter methylation, TMEM106C cg25884854 (DNMT3B knockdown cells): 0.229 | Mean promoter methylation, TRAPPC1 cg01667702 (DNMT3B knockdown cells): 0.231 | Mean promoter methylation, UBA52 cg24356797 (DNMT3B knockdown cells): 0.145 | Mean promoter methylation, UNQ2446 cg10574499 (DNMT3B knockdown cells): 0.218 | Mean promoter methylation, VPREB1 cg18441959 (DNMT3B knockdown cells): 0.230 | Mean promoter methylation, ZGPAT cg04078896 (DNMT3B knockdown cells): 0.191 | Mean promoter methylation, ZGPAT cg18611245 (DNMT3B knockdown cells): 0.379 | Mean promoter methylation, ZNF585B cg03751813 (DNMT3B knockdown cells): 0.182 | Mean promoter methylation, ZNF702 cg07559730 (DNMT3B knockdown cells): 0.221
